The subject of assay [1] is sulfhydryl modified aptamer 31 (DNA, aptamer) ACGCATAGGGTGCGACCACATACGCCCCATGTATGTCCCTTGGTTGTGCCCTATGCGT
As to the kind of experiment: electrochemical impedance spectroscopy. The note with it: K+ (0.5 M KCl), 10 mM K3[Fe(CN)6]/K4[Fe(CN)6], PBS pH 7.0, 30 min.

Assay [2] concerns Aptamer 123 (DNA, aptamer) ACGCATAGGGCAACCAGACCAGCCCCATCCCCATGTGACTTCTGTTTGGCCTATGCGT
As to the kind of experiment: AuNP colorimetric assay (A620/A520 ratio > 1.1). Particulars: 1.0 M NaCl added after incubation to aggregate AuNPs; 0.4 μM aptamer, 1 μg/mL DEHP, 30 min; room temperature.

Assay [3] deals with Aptamer 203 (DNA, aptamer) ACGCATAGGGCAAGACAAACTGCGCCATTCAGCATGCTGTTCGGGTTGGCCTATGCGT
As to the kind of experiment: AuNP colorimetric assay (A620/A520 ratio > 1.1). The note with it: 1.0 M NaCl added after incubation to aggregate AuNPs; 0.4 μM aptamer, 1 μg/mL DEHP, 30 min; room temperature.

The subject of assay [4] is Aptamer 31 (DNA, aptamer) ACGCATAGGGTGCGACCACATACGCCCCATGTATGTCCCTTGGTTGTGCCCTATGCGT
As to the kind of experiment: AuNP colorimetric assay (A620/A520 ratio > 1.1). The note with it: 1.0 M NaCl added after incubation to aggregate AuNPs; 0.4 μM aptamer, 1 μg/mL DEHP, 30 min; room temperature.

For assay [5], the system named is Aptamer 281 (DNA, aptamer) ACGCATAGGGTGTGCATCAGCAGTACCAACGACGTTGTGGTGTGCTCATCCTATGCGT
The assay can be described thus: AuNP colorimetric assay (A620/A520 ratio > 1.1). The note with it: 1.0 M NaCl added after incubation to aggregate AuNPs; 0.4 μM aptamer, 1 μg/mL DEHP, 30 min; room temperature.

In assay [6] the test system is Aptamer 31 (DNA, aptamer) ACGCATAGGGTGCGACCACATACGCCCCATGTATGTCCCTTGGTTGTGCCCTATGCGT
As to the kind of experiment: LSPR (OpenSPR), one-to-one kinetic model. Particulars: Na+ (29.2 g NaCl per 500 mL, about 1 M), Mg2+ (0.1 g MgCl2·6H2O per 500 mL, about 1 mM); immobilised compound; amine chip; phosphate buffer pH 7.0; aptamer as analyte, 2.5-40 nM.

Assay [7] has as its system Aptamer 281 (DNA, aptamer) ACGCATAGGGTGTGCATCAGCAGTACCAACGACGTTGTGGTGTGCTCATCCTATGCGT
As to the kind of experiment: LSPR (OpenSPR), one-to-one kinetic model. Particulars: Na+ (29.2 g NaCl per 500 mL, about 1 M), Mg2+ (0.1 g MgCl2·6H2O per 500 mL, about 1 mM); immobilised compound; amine chip; phosphate buffer pH 7.0; aptamer as analyte, 2.5-40 nM.

The test system of assay [8] is Aptamer 203 (DNA, aptamer) ACGCATAGGGCAAGACAAACTGCGCCATTCAGCATGCTGTTCGGGTTGGCCTATGCGT
The assay can be described thus: LSPR (OpenSPR), one-to-one kinetic model. Particulars: Na+ (29.2 g NaCl per 500 mL, about 1 M), Mg2+ (0.1 g MgCl2·6H2O per 500 mL, about 1 mM); immobilised compound; amine chip; phosphate buffer pH 7.0; aptamer as analyte, 2.5-40 nM.

In assay [9] the test system is Aptamer 123 (DNA, aptamer) ACGCATAGGGCAACCAGACCAGCCCCATCCCCATGTGACTTCTGTTTGGCCTATGCGT
As to the kind of experiment: LSPR (OpenSPR), one-to-one kinetic model. The note with it: Na+ (29.2 g NaCl per 500 mL, about 1 M), Mg2+ (0.1 g MgCl2·6H2O per 500 mL, about 1 mM); immobilised compound; amine chip; phosphate buffer pH 7.0; aptamer as analyte, 2.5-40 nM.

These results are taken from article PMC7038136 (2020).

The Kd is the constant that tells how readily two partners part at equilibrium. Lower therefore signals higher affinity.

Consider `O=C(Oc1ccccc1)c1ccccc1C(=O)Oc1ccccc1`, for which the binding entry in assay [1] (only 30.518 pg/mL tested) is listed as “no”. In the case of `CCCCC(CC)COC(=O)c1ccccc1C(=O)OCC(CC)CCCC` (stereo not drawn), the binding result in assay [2], in assay [3], in assay [4], in assay [5] and in [1] (30.518 pg/mL) was “yes” throughout. As to `CC(C)COC(=O)c1ccccc1C(=O)OCC(C)C`, the binding result in assay [1] (only 30.518 pg/mL tested) is listed as “no”. Turning to `CCCCOC(=O)c1ccccc1C(=O)OCc1ccccc1`, in [1] (only 30.518 pg/mL tested), the binding result is listed as “no”. Regarding `CCCCC(CC)COC(=O)c1ccc(OCCCC(=O)O)cc1C(=O)OCC(CC)CCCC` (stereo not drawn), the Kd was found to be 2.26 ± 0.06 nM in assay [6], 43 ± 0.7 nM in [7], 2.68 ± 0.2 nM in assay [8] and 5.33 ± 0.01 nM in assay [9]. For `CCOC(=O)c1ccccc1C(=O)OCC`, in assay [1] (only 30.518 pg/mL tested), the binding result is on record as “no”. As to `CCCCCCOC(=O)c1ccccc1C(=O)OCCCCCC`, the binding entry in assay [1] (only 30.518 pg/mL tested) is given as “no”. Take `CCCCOC(=O)c1ccccc1C(=O)OCCCC`: the binding entry in assay [1] (only 30.518 pg/mL tested) is “no”. For the molecule `COC(=O)c1ccccc1C(=O)OC`, the binding entry in assay [1] (only 30.518 pg/mL tested) is “no”. The same measure, in the same setting: then `CCCCCCCCOC(=O)c1ccccc1C(=O)OCCCCCCCC`, with “no”; and `O=C(OC1CCCCC1)c1ccccc1C(=O)OC1CCCCC1`, with “no”.
